Paper PMC5989765, “The safety, tolerability, and pharmacokinetic profile of GSK2838232, a novel 2nd generation HIV maturation inhibitor, as assessed in healthy subjects” (Pharmacology Research & Perspectives, 2018)
In brackets after ≈: the same amount, converted by molar mass. Entries after “also recorded” stand apart in the source; their conditions may differ. Read-outs that look alike come from different tables or passages of the source.

Legend:
[1] = Pharmacokinetics in healthy subjects, statements across the Phase I studies; assay type: in vivo, human; settings: for half-life: human, plasma, oral
Description: (§1) Blood samples were taken via an indwelling cannula or by direct venipuncture, collected into a di‐potassium ethylenediaminetetraacetic acid (K2 EDTA) tube, and placed on wet ice. Samples were centrifuged at approximately 1500g for 10 minutes at approximately 4°C. Exactly 500 μL of the resulting plasma was transferred into labeled 1.4 mL Matrix TrakMate Tubes containing exactly 500 μL of 50 mmol/L citrate buffer, pH 4.0, and mixed well. When 500 μL of plasma was not able to be transferred, the ratio of plasma to citrate buffer was kept at 1:1. Buffered plasma samples were kept on ice and frozen at −70°C within 1 hour of collection. Plasma samples were analyzed for GSK2838232 using a validated analytical method based on protein precipitation, followed by high performance liquid chromatography with tandem mass spectrometry (HPLC/MS/MS) analysis.
(§2) Extracts were analyzed using HPLC (Shimadzu, Nexera, 30 series) and tandem mass spectrometry detection (HPLC‐MS/MS). The mass spectrometer used was an API‐5500 using IonSpray interface (500 V) in positive mode monitoring. The mass transitions were 809.5 to 255.1 and 816.5 to 262.1 for GSK2838232 and [2H7] GSK2838232 (the isotopically labeled internal standard), respectively. The chromatographic conditions utilized a Waters Acquity UPLC BEH C18 column (50 × 2.1 mm, 1.7 μm) with mobile phases consisting of 1 mmol/L ammonium formate:formic acid (100:0.005) (mobile phase A) and acetonitrile:formic acid (100:0.1) (mobile phase B) at a flow rate of 0.6 mL/min, with pump B at 63% held for 2 minutes. The assay was validated to have precision (%RSD) of 0.7%‐6.5% (within‐run) and 1.0%‐5.9% RSD (between‐run) and with accuracy (%bias) of 0.0%‐1.6%. […] The lower limit of quantification (LLQ) was 0.5 ng/mL, using a 50 μL aliquot of K2EDTA acidified plasma. The higher limit of quantification (HLQ) was 500 ng/mL.
(§3) The PK parameters were calculated by standard noncompartmental analysis based on actual sampling times using WinNonlin Version 6.3 or higher. Estimation of AUC used the linear up/log down trapezoidal rule.

[2] = in vitro, across all species; cited from earlier work
HIV‐1 = tested on: HIV‐1; parameters: method as in earlier work; settings: cited from earlier work
[3] = Study 204953 Part 2: repeat dosing for 11 days with RTV QD or 200 mg BID unboosted; assay type: in vivo, human; settings: for CL/F / Cmax / AUC / half-life: geometric mean (95% CI); for Cmax / Tmax / AUC / concentration at 24 h / half-life / concentration at 12 h: human, plasma, oral; for AUC: read-out: AUC(0‐τ); for half-life: read-out: t½ (converted); for dose proportionality (C max and AUC): repeat QD dosing 20‐200 mg with RTV for 11 days, PiB or capsules
Description: This study was planned as an extension of the previously conducted single‐ and multiple‐dose escalation studies described above. It was a double‐blind, placebo‐controlled, single and repeat dose escalation study of micronized API GSK2838232 with RTV conducted in three parts (Part 1A, Part 1B, and Part 2).
In Part 2, GSK2838232 was given to separate cohorts as once‐daily 20, 50, 100, and 200 mg doses with RTV for 11 days, with GSK2838232 and RTV dosing starting at the same time (i.e., no RTV predosing). GSK2838232 was administered as PiB for the 20 and 50 mg cohorts and as the capsule formulation for the 100 and 200 mg cohorts. Another separate cohort of subjects received GSK2838232 alone (i.e., unboosted) at a dose of 200 mg twice‐daily (BID; given every 12 hours) for 11 days using the capsule formulation to assess trough concentrations without RTV co‐administration.
as §1, §2, §3

[4] = Study Day 11, 20 mg QD + RTV (PiB), Study 204953
[5] = Study Day 11, 50 mg QD + RTV (PiB), Study 204953
[6] = Study Day 11, 100 mg QD + RTV (capsules), Study 204953
[7] = Study Day 11, 200 mg QD + RTV (capsules), Study 204953
[8] = 200 mg, Study Day 11, 200 mg bid without RTV (capsules), Study 204953
[9] = relative to first dose following predosing ritonavir to steady‐state

With `CC(C)C1=C2[C@H]3CC[C@@H]4[C@@]5(C)CC[C@H](OC(=O)CC(C)(C)C(=O)O)C(C)(C)[C@@H]5CC[C@@]4(C)[C@]3(C)CC[C@@]2([C@@H](O)CN(CCN(C)C)Cc2ccc(Cl)cc2)CC1=O` [GSK2838232] the positive food effect ([1]; capsule formulation discussion) was “about 1.5 fold”, the “metabolite detected in human plasma” value ([1]; co‐administration with RTV) was “O‐glucuronide” and the absorption with food ([1]; fed state (moderate or high fat meal)) was “delayed and more variable”. For the same compound, the “increase in AUC with food” value ([1]; fed versus fasted) was ~ 60%, the “increase in C max with food” value ([1]; fed versus fasted) was ~ 60% and the half-life ([1]; nonboosted) was about 17 h. For the same compound, the half-life ([1]; with RTV) was about 34 h, the “dose proportionality of AUC and C max” value ([1]; single doses without RTV, 5‐100 mg (SDD, fasted)) was “proportional PK; also recorded: proportional to dose; also recorded: proportional pharmacokinetics” and the plasma protein binding [2] was over 99.9%. For the same compound, the “shift in IC90 with human serum albumin added” value (HIV‐1; assays to which human serum albumin was added) was “no significant shift”, the “IC90 in cell‐based assays (termed PA‐IC90, protein‐adjusted 90% inhibitory concentration)” value (HIV‐1; calculated) was 5 ng/mL (≈ 6.18 nM) and the IC90 (HIV‐1; calculated, read-out: IC90 in cell‐based assays) was 6.4 nM. The “activity to viruses with key resistance mutations” value (HIV‐1; panel of viruses) was “retains activity”, the “steady‐state C24 as multiple of PA‐IC90” value ([3]; 200 mg BID unboosted, PA‐IC90 5 ng/mL) was ~ 8 fold and the “steady‐state C24 of 200 mg BID without RTV compared with 50 mg QD with RTV” value ([3]; Study 204953) was “similar”. The CL/F [3, 4] was 44.5 (29.5, 67.3) L/h, the CL/F [3, 5] was 46.0 (35.7, 59.2) L/h and the CL/F [3, 6] was 41.5 (30.7, 56.1) L/h. For the same compound, the CL/F [3, 7] was 49.8 (30.3, 81.9) L/h, the CL/F ([3]; Study Day 11, 200 mg bid without RTV (capsules), Study 204953) was 269 (182, 399) L/h and the Cmax ([3]; 20 mg, Study day 1, 20 mg QD + RTV (PiB), Study 204953) was 11.1 ng/mL. It also gave a Tmax ([3]; 20 mg, Study day 1, 20 mg QD + RTV (PiB), Study 204953, median (range)) of 3.74 h, an AUC ([3]; 20 mg, Study day 1, 20 mg QD + RTV (PiB), τ = 24 hours, Study 204953) of 175 ng·h/mL and a concentration at 24 h ([3]; 20 mg, Study day 1, 20 mg QD + RTV (PiB), τ = 24 hours, Study 204953, median (range), read-out: Cτ) of 6.09 ng/mL. For the same compound, the Cmax ([3]; 50 mg, Study day 1, 50 mg QD + RTV (PiB), Study 204953) was 17.1 ng/mL, the Tmax ([3]; 50 mg, Study day 1, 50 mg QD + RTV (PiB), Study 204953, median (range)) was 2.5 h and the AUC ([3]; 50 mg, Study day 1, 50 mg QD + RTV (PiB), τ = 24 hours, Study 204953) was 265 ng·h/mL. It also gave a concentration at 24 h ([3]; 50 mg, Study day 1, 50 mg QD + RTV (PiB), τ = 24 hours, Study 204953, median (range), read-out: Cτ) of 11.1 ng/mL, a Cmax ([3]; 100 mg, Study day 1, 100 mg QD + RTV (capsules), Study 204953) of 46.2 ng/mL and a Tmax ([3]; 100 mg, Study day 1, 100 mg QD + RTV (capsules), Study 204953, median (range)) of 2.25 h. It also gave an AUC ([3]; 100 mg, Study day 1, 100 mg QD + RTV (capsules), τ = 24 hours, Study 204953) of 635 ng·h/mL, a concentration at 24 h ([3]; 100 mg, Study day 1, 100 mg QD + RTV (capsules), τ = 24 hours, Study 204953, median (range), read-out: Cτ) of 22.7 ng/mL and a concentration at 24 h ([3]; 200 mg, 200 mg BID unboosted, read-out: steady‐state C24 mean concentration) of 39 ng/mL. The Cmax [3, 8] was 96.1 ng/mL, the half-life [3, 8] was 19.4 h and the Tmax ([3]; 200 mg, Study Day 11, 200 mg bid without RTV (capsules), Study 204953, median (range)) was 3.76 h. For the same compound, the AUC ([3]; 200 mg, Study Day 11, 200 mg bid without RTV (capsules), τ = 12 hours, Study 204953) was 742 ng·h/mL, the concentration at 12 h ([3]; 200 mg, Study Day 11, 200 mg bid without RTV (capsules), τ = 12 hours, Study 204953, median (range), read-out: Cτ) was 38.4 ng/mL and the Cmax ([3]; 200 mg, Study day 1, 200 mg QD + RTV (capsules), Study 204953) was 75 ng/mL. It also gave a Tmax ([3]; 200 mg, Study day 1, 200 mg QD + RTV (capsules), Study 204953, median (range)) of 2.25 h, an AUC ([3]; 200 mg, Study day 1, 200 mg QD + RTV (capsules), τ = 24 hours, Study 204953) of 1060 ng·h/mL and a concentration at 24 h ([3]; 200 mg, Study day 1, 200 mg QD + RTV (capsules), τ = 24 hours, Study 204953, median (range), read-out: Cτ) of 40.1 ng/mL. For the same compound, the Cmax ([3]; 200 mg, Study day 1, 200 mg bid without RTV (capsules), Study 204953) was 48.5 ng/mL, the Tmax ([3]; 200 mg, Study day 1, 200 mg bid without RTV (capsules), Study 204953, median (range)) was 3.74 h and the AUC ([3]; 200 mg, Study day 1, 200 mg bid without RTV (capsules), τ = 12 hours, Study 204953) was 267 ng·h/mL. For the same compound, the concentration at 12 h ([3]; 200 mg, Study day 1, 200 mg bid without RTV (capsules), τ = 12 hours, Study 204953, median (range), read-out: Cτ) was 20 ng/mL, the Cmax [3, 4] was 25.3 ng/mL and the half-life [3, 4] was 19.8 h. The Tmax ([3]; Study Day 11, 20 mg QD + RTV (PiB), Study 204953, median (range)) was 5.98 h, the AUC ([3]; Study Day 11, 20 mg QD + RTV (PiB), τ = 24 hours, Study 204953) was 449 ng·h/mL and the concentration at 24 h ([3]; Study Day 11, 20 mg QD + RTV (PiB), τ = 24 hours, Study 204953, median (range), read-out: Cτ) was 17 ng/mL. The Cmax [3, 5] was 56.6 ng/mL, the half-life [3, 5] was 20.5 h and the Tmax ([3]; Study Day 11, 50 mg QD + RTV (PiB), Study 204953, median (range)) was 3.75 h. The AUC ([3]; Study Day 11, 50 mg QD + RTV (PiB), τ = 24 hours, Study 204953) was 1090 ng·h/mL, the concentration at 24 h ([3]; Study Day 11, 50 mg QD + RTV (PiB), τ = 24 hours, Study 204953, median (range), read-out: Cτ) was 40.8 ng/mL and the Cmax [3, 6] was 130 ng/mL. It also gave a half-life [3, 6] of 17.7 h, a Tmax ([3]; Study Day 11, 100 mg QD + RTV (capsules), Study 204953, median (range)) of 3.25 h and an AUC ([3]; Study Day 11, 100 mg QD + RTV (capsules), τ = 24 hours, Study 204953) of 2410 ng·h/mL. The concentration at 24 h ([3]; Study Day 11, 100 mg QD + RTV (capsules), τ = 24 hours, Study 204953, median (range), read-out: Cτ) was 89.3 ng/mL, the Cmax [3, 7] was 225 ng/mL and the half-life [3, 7] was 18 h. The Tmax ([3]; Study Day 11, 200 mg QD + RTV (capsules), Study 204953, median (range)) was 3.25 h, the AUC ([3]; Study Day 11, 200 mg QD + RTV (capsules), τ = 24 hours, Study 204953) was 4010 ng·h/mL and the concentration at 24 h ([3]; Study Day 11, 200 mg QD + RTV (capsules), τ = 24 hours, Study 204953, median (range), read-out: Cτ) was 142 ng/mL. The “reduction of Day 1 AUC without ritonavir predosing” value [3, 9] was about 25%, the “reduction of Day 1 C max without ritonavir predosing” value [3, 9] was about 25% and the “dose proportionality (C max and AUC)” value [3] was “proportional PK; also recorded: dose proportional”. For the same compound, the “dose proportionality (C max and AUC)” value ([3]; listed as GSK2383232) was “proportional pharmacokinetics”.
